Changes are numbered by the printed parent chain.
Key:
Format in all cases: biochemical
[1] = target: T1, PKA-Iβ (Homo sapiens, UniProt P31321); assay: PKA activity assay, PKA-Iβ; conditions: PKAIβ
T1 construct: made in house
Experimental: (§1) The recombinant human PKA catalytic subunit (Cα1) and the four human PKA regulatory subunits (RIα, RIβ, RIIα, RIIβ) were expressed, purified, and characterized as described. […] PKA holoenzymes were formed by mixing the R- and C-subunit at a molar ratio of 1.2:1 and extensive dialysis against 20 mM MOPS (pH 7.0), 150 mM NaCl, 2.5 mM β-mercaptoethanol, supplemented with 1 mM ATP and 10 mM MgCl2 for PKA-I at 4°C overnight. PKA holoenzymes were used at about 20 nM for the activation assay. The apparent activation constants (Kact) were determined by fitting the concentration-dependent activity to a sigmoid dose-response model.

[2] = target: T2, Epac2^Δ280 (Mus musculus, UniProt Q9EQZ6); assay: Epac activation assay (Rap1B•mGDP fluorescence nucleotide exchange), Epac2^Δ280
T2 construct: made in house
T2 sequence (Q9EQZ6 281-993 isoform Q9EQZ6-3): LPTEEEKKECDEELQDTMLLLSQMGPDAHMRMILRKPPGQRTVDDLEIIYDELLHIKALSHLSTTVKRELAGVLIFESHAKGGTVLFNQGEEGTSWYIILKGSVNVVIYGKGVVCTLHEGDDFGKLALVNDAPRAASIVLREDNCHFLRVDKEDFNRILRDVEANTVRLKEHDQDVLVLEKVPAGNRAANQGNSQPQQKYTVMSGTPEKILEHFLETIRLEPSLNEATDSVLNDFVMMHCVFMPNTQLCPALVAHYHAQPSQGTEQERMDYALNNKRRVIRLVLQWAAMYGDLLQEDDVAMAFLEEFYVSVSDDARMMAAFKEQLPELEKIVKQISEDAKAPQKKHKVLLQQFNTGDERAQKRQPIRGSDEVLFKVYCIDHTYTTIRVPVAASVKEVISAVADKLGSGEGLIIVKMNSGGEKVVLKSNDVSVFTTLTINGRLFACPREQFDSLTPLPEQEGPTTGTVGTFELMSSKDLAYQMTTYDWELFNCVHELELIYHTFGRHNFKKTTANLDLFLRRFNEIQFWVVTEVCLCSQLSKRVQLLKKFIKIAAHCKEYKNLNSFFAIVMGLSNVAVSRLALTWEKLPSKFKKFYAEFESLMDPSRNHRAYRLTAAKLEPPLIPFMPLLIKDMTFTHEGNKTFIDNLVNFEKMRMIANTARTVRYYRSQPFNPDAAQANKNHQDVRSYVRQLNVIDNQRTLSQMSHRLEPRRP
Experimental: (§2) Murine Epac2 was used as all previous structural studies were performed with it.
(§3) The activity of Epac was determined by a fluorescence assay. […] The fluorescence intensity of Rap1B•mGDP is approximately twice that of free mGDP, and thus, nucleotide exchange can be observed as a decay in fluorescence upon the addition of excess unlabeled GDP.

[3] = target: T3, Epac2^Δ280,K450E (Mus musculus, UniProt Q9EQZ6, K468E); assay: Epac activation assay, Epac2 K450E mutant
T3 construct: made in house
T3 sequence (Q9EQZ6 281-993 isoform Q9EQZ6-3 K450E): T2 sequence (Q9EQZ6 281-993 isoform Q9EQZ6-3) with K170E
Experimental: as §2, §3

[4] = target: T4, PKA-IIβ (Homo sapiens, UniProt P31323); assay: PKA activity assay, PKA-IIβ; conditions: PKAIIβ
T4 construct: made in house
T4 sequence (P31323 whole entry): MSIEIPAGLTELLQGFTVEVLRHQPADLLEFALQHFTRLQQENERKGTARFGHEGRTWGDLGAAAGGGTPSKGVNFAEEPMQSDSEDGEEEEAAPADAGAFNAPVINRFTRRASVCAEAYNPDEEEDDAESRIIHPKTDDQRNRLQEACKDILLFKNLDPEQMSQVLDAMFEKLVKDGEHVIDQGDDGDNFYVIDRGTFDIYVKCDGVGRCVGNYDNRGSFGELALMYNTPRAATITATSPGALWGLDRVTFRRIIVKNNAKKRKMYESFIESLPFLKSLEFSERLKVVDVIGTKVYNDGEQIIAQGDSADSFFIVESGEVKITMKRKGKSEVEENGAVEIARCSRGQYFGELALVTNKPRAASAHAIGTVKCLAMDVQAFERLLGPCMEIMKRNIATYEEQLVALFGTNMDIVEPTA
Experimental: as §1

T1 sequence (P31321 whole entry): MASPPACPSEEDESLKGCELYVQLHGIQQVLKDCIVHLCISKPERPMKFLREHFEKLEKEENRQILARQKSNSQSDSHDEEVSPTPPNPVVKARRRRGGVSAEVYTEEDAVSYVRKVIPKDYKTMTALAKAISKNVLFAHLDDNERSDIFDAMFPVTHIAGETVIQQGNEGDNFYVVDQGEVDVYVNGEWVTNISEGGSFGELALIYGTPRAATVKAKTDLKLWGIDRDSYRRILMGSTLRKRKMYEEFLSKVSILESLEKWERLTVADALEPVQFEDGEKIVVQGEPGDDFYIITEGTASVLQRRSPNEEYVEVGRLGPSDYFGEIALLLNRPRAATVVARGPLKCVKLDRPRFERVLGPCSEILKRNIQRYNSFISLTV

Nc1ncnc2c1ncn2[C@@H]1O[C@@H]2COP(=O)(O)O[C@H]2[C@H]1O [cAMP, reference compound]
A (PKA activity) ([1]; concentration 1 μM): 2.35E+01 U/mg
A (PKA activity) ([1]; concentration 1.00E+01 μM): 2.37E+01 U/mg
A (PKA activity) ([1]; concentration 1.00E+02 μM): 2.44E+01 U/mg
A (PKA activity) ([1]; concentration 1.00E-01 μM): 2.23E+01 U/mg
A (PKA activity) ([1]; concentration 1.00E-02 μM): 7.2375 U/mg
A (PKA activity) ([1]; concentration 1.00E-03 μM): 2.9 U/mg
A (PKA activity) ([1]; concentration 1.00E-05 μM): 4.525 U/mg
A (PKA activity) ([1]; concentration 2.50E-02 μM): 1.08E+01 U/mg
A (PKA activity) ([1]; concentration 5.00E-02 μM): 1.54E+01 U/mg
kobs ([2]; 0.4 μM compound): 9.9e-05 s⁻¹
kobs ([2]; 0.5 μM compound): 0.000111 s⁻¹
kobs ([2]; 0.6 μM compound): 0.000113 s⁻¹
kobs ([2]; 0.7 μM compound): 0.000125 s⁻¹
kobs ([2]; 0.8 μM compound): 0.000132 s⁻¹
kobs ([2]; 1 μM compound): 0.000141 s⁻¹
kobs ([2]; 2 μM compound): 0.000207 s⁻¹
kobs ([2]; 3 μM compound): 0.000246 s⁻¹
kobs ([2]; 4 μM compound): 0.000263 s⁻¹
kobs ([2]; 5 μM compound): 0.000273 s⁻¹
kobs ([2]; 6 μM compound): 0.000293 s⁻¹
kobs ([2]; 7 μM compound): 0.000298 s⁻¹
kobs ([2]; 8 μM compound): 0.000303 s⁻¹
kobs ([2]; 10 μM compound): 0.00031 s⁻¹
kobs ([2]; 20 μM compound): 0.000328 s⁻¹
kobs ([2]; 30 μM compound): 0.000331 s⁻¹
share of cAMP bound protein still in an inactive conformation ([2]; Epac2, assuming the most efficient activators shift the equilibrium fully): ~85%
kobs ([3]; 0.01 μM compound): 3.01e-05 s⁻¹
kobs ([3]; 0.05 μM compound): 4.19e-05 s⁻¹
kobs ([3]; 0.08 μM compound): 5.14e-05 s⁻¹
kobs ([3]; 0.1 μM compound): 5.5e-05 s⁻¹
kobs ([3]; 0.2 μM compound): 8.25e-05 s⁻¹
kobs ([3]; 0.3 μM compound): 9.73e-05 s⁻¹
kobs ([3]; 0.4 μM compound): 0.000114 s⁻¹
kobs ([3]; 0.5 μM compound): 0.000124 s⁻¹
kobs ([3]; 0.6 μM compound): 0.000146 s⁻¹
kobs ([3]; 0.7 μM compound): 0.000155 s⁻¹
kobs ([3]; 0.8 μM compound): 0.000161 s⁻¹
kobs ([3]; 1 μM compound): 0.00017 s⁻¹
kobs ([3]; 2 μM compound): 0.000246 s⁻¹
kobs ([3]; 3 μM compound): 0.000274 s⁻¹
kobs ([3]; 4 μM compound): 0.000285 s⁻¹
kobs ([3]; 5 μM compound): 0.000283 s⁻¹
kobs ([3]; 6 μM compound): 0.000286 s⁻¹
kobs ([3]; 7 μM compound): 0.000293 s⁻¹
kobs ([3]; 8 μM compound): 0.000295 s⁻¹
kobs ([3]; 10 μM compound): 0.000299 s⁻¹
kobs ([3]; 20 μM compound): 0.000336 s⁻¹
kobs ([3]; 30 μM compound): 0.000329 s⁻¹
kobs ([3]; 40 μM compound): 0.000336 s⁻¹
kobs ([3]; 50 μM compound): 0.000327 s⁻¹
kobs ([3]; 60 μM compound): 0.000303 s⁻¹
kobs ([3]; 70 μM compound): 0.000306 s⁻¹
kobs ([3]; 80 μM compound): 0.000304 s⁻¹
kobs ([3]; 100 μM compound): 0.000294 s⁻¹
A (PKA activity) ([4]; concentration 1 μM): 2.14E+01 U/mg
A (PKA activity) ([4]; concentration 1.00E+01 μM): 2.50E+01 U/mg
A (PKA activity) ([4]; concentration 1.00E+02 μM): 2.46E+01 U/mg
A (PKA activity) ([4]; concentration 1.00E-01 μM): 1.13E+01 U/mg
A (PKA activity) ([4]; concentration 1.00E-02 μM): 4.087 U/mg
A (PKA activity) ([4]; concentration 1.00E-03 μM): 4.309 U/mg
A (PKA activity) ([4]; concentration 1.00E-04 μM): 4.252 U/mg
A (PKA activity) ([4]; concentration 1.00E-05 μM): 2.8563 U/mg
A (PKA activity) ([4]; concentration 2.50E-01 μM): 1.57E+01 U/mg
A (PKA activity) ([4]; concentration 2.50E-02 μM): 5.477 U/mg
A (PKA activity) ([4]; concentration 5.00E-01 μM): 1.81E+01 U/mg
A (PKA activity) ([4]; concentration 5.00E-02 μM): 9.071 U/mg
